Results published in patent US6525001B1, “Substituted pyrimidine and pyridine herbicides” (Mid-American Commercialization Corporation, priority 1997, dated 2003).

Tests used:
Assay in all cases: Test B pre-/postemergence
Assay type in all cases: in vivo
Parameters in all cases: key: 0 is no effect; 10 is complete control
wild oat (Avena fatua) = test system: wild oat (Avena fatua)
Method in brief: (§1)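 Seeds were planted and sprayed preemergence, while plants at 2 to 18 cm (1- to 4-leaf stage) were sprayed postemergence at the same time, with test chemical in a non-phytotoxic solvent mixture containing surfactant. After twelve to sixteen days in a greenhouse, injury was rated visually against untreated controls on a 0–10 scale.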

[1] = test system: bedstraw (Galium aparine)
Method in brief: as §1

[2] = test system: momingglory (Ipomoea hederacea)
Method in brief: as §1

[3] = test system: velvetleaf (Abutilon theophrasti)
Method in brief: as §1

corn (Zea mays) = test system: corn (Zea mays)
Method in brief: as §1

[4] = test system: sugar beet (Beta vulgaris)
Method in brief: as §1

[5] = test system: cocklebur (Xanthium strumarium)
Method in brief: as §1

[6] = test system: pigweed (Amaranthus retroflexus)
Method in brief: as §1

[7] = test system: blackgrass (Alopecurus myosuroides)
Method in brief: as §1

[8] = test system: crabgrass (Digitaria sanguinalis)
Method in brief: as §1

[9] = test system: broadleaf signalgrass (Brachiaria decumbens)
Method in brief: as §1

[10] = test system: purple nutsedge (Cyperus rotundus)
Method in brief: as §1

[11] = test system: giant foxtail (Setaria faberii)
Method in brief: as §1

[12] = test system: wheat (Triticum aestivum)
Method in brief: as §1

[13] = Preemergence, Rate 62 g/ha, scale of 0 to 10

Cc1cnc(-c2ccc(C(F)(F)F)cc2)nc1Cn1cc(Br)cn1 [Compound 54]
0: Plant response rating, Wild oats (wild oat (Avena fatua); [13]) | Plant response rating, Bedstraw [1, 13] | Plant response rating, Bedstraw ([1]; Rate 125 g/ha, Preemergence) | Plant response rating, Morningglory [2, 13] | Plant response rating, Velvetleaf [3, 13] | Plant response rating, Velvetleaf ([3]; Rate 125 g/ha, Preemergence) | Plant response rating, Corn (corn (Zea mays); [13]) | Plant response rating, Corn (corn (Zea mays); Rate 125 g/ha, Preemergence) | Plant response rating, Sugarbeets [4, 13] | Plant response rating, Cocklebur ([5]; Rate 125 g/ha, Preemergence) | Plant response rating, Cocklebur ([5]; Rate 250 g/ha, Preemergence) | Plant response rating, Cocklebur ([5]; Rate 500 g/ha, Preemergence) | Plant response rating, Blackgrass [7, 13] | Plant response rating, Crabgrass [8, 13] | Plant response rating, Crabgrass ([8]; Rate 125 g/ha, Preemergence) | B. signalgrass plant response rating ([9]; Rate 62 g/ha, Preemergence) | Plant response rating, Nutsedge [10, 13] | Nutsedge plant response rating ([10]; Rate 62 g/ha, Postemergence) | Nutsedge plant response rating ([10]; Rate 125 g/ha, Postemergence) | Plant response rating, Nutsedge ([10]; Rate 125 g/ha, Preemergence) | Plant response rating, Nutsedge ([10]; Rate 250 g/ha, Postemergence) | Plant response rating, Nutsedge ([10]; Rate 250 g/ha, Preemergence) | Plant response rating, Nutsedge ([10]; Rate 500 g/ha, Postemergence) | Plant response rating, Nutsedge ([10]; Rate 500 g/ha, Preemergence) | Plant response rating, Wheat [12, 13] | Wheat plant response rating ([12]; Rate 62 g/ha, Postemergence) | Plant response rating, Wheat ([12]; Rate 125 g/ha, Preemergence) | Plant response rating, Wheat ([12]; Rate 250 g/ha, Preemergence)
9: Plant response rating, Bedstraw ([1]; Rate 500 g/ha, Postemergence) | Plant response rating, Sugarbeets ([4]; Rate 250 g/ha, Postemergence) | Plant response rating, Sugarbeets ([4]; Rate 500 g/ha, Postemergence) | Plant response rating, Sugarbeets ([4]; Rate 500 g/ha, Preemergence) | Plant response rating, Cocklebur ([5]; Rate 500 g/ha, Postemergence) | Plant response rating, Redroot pigweed ([6]; Rate 500 g/ha, Preemergence)
3: Plant response rating, Wild oats (wild oat (Avena fatua); Rate 250 g/ha, Postemergence) | Plant response rating, Wild oats (wild oat (Avena fatua); Rate 250 g/ha, Preemergence) | Plant response rating, Wild oats (wild oat (Avena fatua); Rate 500 g/ha, Postemergence) | Bedstraw plant response rating ([1]; Rate 62 g/ha, Postemergence) | Morningglory plant response rating ([2]; Rate 125 g/ha, Postemergence) | Plant response rating, Morningglory ([2]; Rate 250 g/ha, Postemergence) | Plant response rating, Velvetleaf ([3]; Rate 250 g/ha, Postemergence) | Plant response rating, Velvetleaf ([3]; Rate 500 g/ha, Postemergence) | Plant response rating, Corn (corn (Zea mays); Rate 250 g/ha, Postemergence) | Plant response rating, Corn (corn (Zea mays); Rate 500 g/ha, Postemergence) | Cocklebur plant response rating ([5]; Rate 62 g/ha, Postemergence) | Cocklebur plant response rating ([5]; Rate 125 g/ha, Postemergence) | Plant response rating, Blackgrass ([7]; Rate 250 g/ha, Preemergence) | Plant response rating, Blackgrass ([7]; Rate 500 g/ha, Postemergence) | Plant response rating, Crabgrass ([8]; Rate 250 g/ha, Preemergence) | B. signalgrass plant response rating ([9]; Rate 62 g/ha, Postemergence) | B. signalgrass plant response rating ([9]; Rate 125 g/ha, Postemergence) | Plant response rating, B. signalgrass ([9]; Rate 250 g/ha, Preemergence) | Giant foxtail plant response rating ([11]; Rate 125 g/ha, Postemergence)
10: Plant response rating, Morningglory ([2]; Rate 500 g/ha, Postemergence) | Plant response rating, Giant foxtail ([11]; Rate 500 g/ha, Preemergence)
5: Redroot pigweed plant response rating ([6]; Rate 125 g/ha, Postemergence) | Plant response rating, Crabgrass ([8]; Rate 250 g/ha, Postemergence) | Plant response rating, Crabgrass ([8]; Rate 500 g/ha, Postemergence) | Plant response rating, B. signalgrass ([9]; Rate 500 g/ha, Postemergence)
4: Plant response rating, Wild oats (wild oat (Avena fatua); Rate 500 g/ha, Preemergence) | Bedstraw plant response rating ([1]; Rate 125 g/ha, Postemergence) | Plant response rating, Bedstraw ([1]; Rate 500 g/ha, Preemergence) | Redroot pigweed plant response rating ([6]; Rate 62 g/ha, Postemergence) | Plant response rating, Blackgrass ([7]; Rate 500 g/ha, Preemergence) | Crabgrass plant response rating ([8]; Rate 125 g/ha, Postemergence) | Plant response rating, B. signalgrass ([9]; Rate 250 g/ha, Postemergence) | Plant response rating, Giant foxtail ([11]; Rate 250 g/ha, Postemergence) | Plant response rating, Giant foxtail ([11]; Rate 500 g/ha, Postemergence)
2: Wild oats plant response rating (wild oat (Avena fatua); Rate 125 g/ha, Postemergence) | Morningglory plant response rating ([2]; Rate 62 g/ha, Postemergence) | Plant response rating, Morningglory ([2]; Rate 250 g/ha, Preemergence) | Plant response rating, Morningglory ([2]; Rate 500 g/ha, Preemergence) | Velvetleaf plant response rating ([3]; Rate 62 g/ha, Postemergence) | Velvetleaf plant response rating ([3]; Rate 125 g/ha, Postemergence) | Corn plant response rating (corn (Zea mays); Rate 62 g/ha, Postemergence) | Corn plant response rating (corn (Zea mays); Rate 125 g/ha, Postemergence) | Plant response rating, Redroot pigweed ([6]; Rate 125 g/ha, Preemergence) | Plant response rating, Blackgrass ([7]; Rate 250 g/ha, Postemergence) | Crabgrass plant response rating ([8]; Rate 62 g/ha, Postemergence) | Giant foxtail plant response rating ([11]; Rate 62 g/ha, Postemergence) | Wheat plant response rating ([12]; Rate 125 g/ha, Postemergence) | Plant response rating, Wheat ([12]; Rate 250 g/ha, Postemergence) | Plant response rating, Wheat ([12]; Rate 500 g/ha, Postemergence)
1: Wild oats plant response rating (wild oat (Avena fatua); Rate 62 g/ha, Postemergence) | Plant response rating, Wild oats (wild oat (Avena fatua); Rate 125 g/ha, Preemergence) | Plant response rating, Bedstraw ([1]; Rate 250 g/ha, Preemergence) | Plant response rating, Morningglory ([2]; Rate 125 g/ha, Preemergence) | Plant response rating, Velvetleaf ([3]; Rate 250 g/ha, Preemergence) | Plant response rating, Velvetleaf ([3]; Rate 500 g/ha, Preemergence) | Plant response rating, Corn (corn (Zea mays); Rate 250 g/ha, Preemergence) | Plant response rating, Corn (corn (Zea mays); Rate 500 g/ha, Preemergence) | Plant response rating, Sugarbeets ([4]; Rate 125 g/ha, Preemergence) | Plant response rating, Redroot pigweed [6, 13] | Blackgrass plant response rating ([7]; Rate 62 g/ha, Postemergence) | Blackgrass plant response rating ([7]; Rate 125 g/ha, Postemergence) | Plant response rating, Blackgrass ([7]; Rate 125 g/ha, Preemergence) | Plant response rating, B. signalgrass ([9]; Rate 125 g/ha, Preemergence) | Plant response rating, Giant foxtail [11, 13] | Plant response rating, Giant foxtail ([11]; Rate 125 g/ha, Preemergence) | Plant response rating, Wheat ([12]; Rate 500 g/ha, Preemergence)
8: Plant response rating, Crabgrass ([8]; Rate 500 g/ha, Preemergence) | Plant response rating, Giant foxtail ([11]; Rate 250 g/ha, Preemergence)
7: Plant response rating, Bedstraw ([1]; Rate 250 g/ha, Postemergence) | Sugarbeets plant response rating ([4]; Rate 125 g/ha, Postemergence) | Plant response rating, Sugarbeets ([4]; Rate 250 g/ha, Preemergence) | Plant response rating, Cocklebur ([5]; Rate 250 g/ha, Postemergence) | Plant response rating, Redroot pigweed ([6]; Rate 250 g/ha, Preemergence) | Plant response rating, Redroot pigweed ([6]; Rate 500 g/ha, Postemergence)
6: Sugarbeets plant response rating ([4]; Rate 62 g/ha, Postemergence) | Plant response rating, Redroot pigweed ([6]; Rate 250 g/ha, Postemergence) | Plant response rating, B. signalgrass ([9]; Rate 500 g/ha, Preemergence)
